Non-standard residues stand in square brackets, D forms with d. No end group written: not given here.
Columns and labels:
[1] = test system: TNF-α secretion from RAW264.7 cells; assay: Inhibition of CpG-ODN-induced TNF-α secretion from RAW264.7 cells (ELISA); assay type: cell-based, murine; settings: for activity compared with P13 (inhibition of TNF-α after stimulation of RAW264.7 cells with CpG): SAR, versus P13; for Percent Inhibition of TNF-α secretion, CpG Stimulation / Inhibition of TNF-α secretion (percent inhibition) / Percent Inhibition of TNF-α secretion: RAW264.7, 4 hours; for Percent Inhibition of TNF-α secretion, CpG Stimulation: 1.25 ug/ml CpG-ODN; for Inhibition of TNF-α secretion (percent inhibition) / Percent Inhibition of TNF-α secretion: 1 μg/ml CpG-ODN
Method: (§1) RAW264.7 cells were plated at 1.5×10^5 cells/well-3×10^5 cells/well in 48-well plates. After 24 hours, the cells were incubated with peptides at various concentrations at room temperature in triplicate either before, simultaneous with, or after activation with various PAMPs for 18 hours. Cell-free supernatants were analyzed for cytokines by ELISA, in quadruplicate. RAW264.7 cells were stimulated with either CpG-ODN (1 μg/ml or 1.25 μg/ml), LPS (about 1 ng/ml), Poly (I:C) (about 10 μg/ml), flagellin (about 5 ng/ml), or zymosan (about 10 μg/ml). Dose response curves were done with each PAMP to determine optimal stimulation concentration. For CpG-ODN stimulation, cells were incubated for 4 hours at 37° C., supernatants collected, and TNF-α measured by ELISA. Any cytokine involved in inflammatory disease mediated toll receptor signaling can be measured using similar assays.
The effect of several peptides on TNF-α secretion from RAW264.7 cells in response to stimulation by CpG-ODN was studied. Each peptide was initially tested at 3 concentrations, 37 μM, 22.2 μM, and 11.1 μM. […] The peptides were then tested at 11.1 μM, 7.4 μM, and 3.7 μM (Table 3). […] Cell viability was examined for each peptide at the concentrations tested for TNF-α inhibition.
(§2) Inhibition of TNF-α secretion by various T-peptides was examined. RAW264.7 cells were plated at 3×10^5 cells/well in 48-well plates. After 24 h the cells were incubated with peptide at various concentrations at room temperature in triplicate for 15 minutes and then stimulated with 1.25 ug/ml CpG-ODN or 1 ng/ml LPS. Cells were then incubated for 4 hours at 37° C., supernatants collected, and TNF-α measured by ELISA. Percent inhibition was calculated by comparing TNF-α secretion from cells incubated with peptide to control cells with no peptide treatment. The inhibitive effects of peptides T3 (SEQ ID NO: 319), T11 (SEQ ID NO: 327), T21 (SEQ ID NO: 337), T36 (SEQ ID NO: 352), T37 (SEQ ID NO: 353), T51 (SEQ ID NO: 367), and T52 (SEQ ID NO: 368) were compared to inhibition by an analogue of P13 (SEQ ID NO: 369) having a sequence of nine arginine residues at the C-terminus (P13-R^9 (SEQ ID NO: 378)). (Table 4).

[2] = test system: TNF-α secretion from RAW264.7 cells; assay: Inhibition of LPS-induced TNF-α secretion from RAW264.7 cells (ELISA); assay type: cell-based, murine; settings: 1 ng/ml LPS, 4 hours
Method: as §1, §2

C3H/HeJ mice = assay: Topical treatment in chronic otitis media (COM) model, ABR; assay type: in vivo, mouse
BALB/c mice [3] = assay: Effects of peptide on middle ear without added bacteria; assay type: in vivo, mouse; settings: 10 μM, no bacteria, 3 days; p=0.104, 0.880, 0.891
Method: BALB/c (Bagg albino) mice, about 8-12 weeks of age, are anesthetized with a subcutaneous injection of xylazine & ketamine (about 0.1 mg/30 gm body weight) and their ears examined under the operating microscope to assure they are free of infection or perforation. One group of animals is injected with PBS (Phospho-buffered saline) in one ear and with about 10 μM of a peptide of Table 1 in the opposite ear, to determine the effect of peptide without added bacteria. A second group of animals receive about 5.0 μl of PBS plus heat-inactivated S. pneumoniae (about 10^9 CFU/ml) in one ear and about 5.0 μl of peptide (about 10 μM) plus heat-inactivated S. pneumoniae (about 10^9 CFU/ml) in the opposite ear. […] Inflammation is quantified by measuring 1) area of fluid present in the middle ear; 2) number of cells in middle ear fluid; and 3) thickness of the tympanic membrane (TM) taken at a point away from the injection site. Data are obtained from mice (n=18) injected with PBS alone for each of the histological parameters measured, to serve as a control group.
Five mice were injected in one ear with PBS and in the opposite ear with 10 μM peptide P13 (SEQ ID NO: 369). Three days later the animals were killed, and the middle ears embedded, sectioned, stained and evaluated for fluid area, infiltrating cell number, and thickness of the tympanic membrane. […]

BALB/c mice [4] = assay: Ototoxicity of topical administration in normal mice, ABR; assay type: in vivo, mouse; settings: 1, 10, 10 (twice) or 60 μg/30 μL topically; ABR 1-4 weeks
Method: P13 (SEQ ID NO: 369) was investigated for possible negative impact on hearing in normal mice upon administration by ear drops. BALB/c mice, 16 weeks of age, (n=16) received two baseline auditory brainstem response (ABR) tests one week apart, and an otoscopic exam in both ears. ABR stimuli consisted of 20 tone-burst trains at 4 kHz, 8 kHz, 16 kHz and 32 kHz at five intensity levels in 10 dB steps, as previously described. An otoscopic exam was performed using an operating microscope to establish the clinical symptoms of AOM, as previously described. Any animal with an abnormal ABR or exam on pre-screen was not entered into the study.
All 16 animals remained in the study and were divided into five groups as follows:
group 1: (n=6 ears) 1 μg P13 (SEQ ID NO: 369)/30 μl, topically, given once;
group 2: (n=7 ears) 10 μg P13 (SEQ ID NO: 369)/30 μL, topically, given once;
group 3: (n=7 ears) 10 μg P13 (SEQ ID NO: 369)/30 μL, topically, given twice, 24 hours apart;
group 4: (n=6 ears) 60 μg P13 (SEQ ID NO: 369)/30 μL, topically, given once; and
ABRs were performed at one, two, three and four weeks post P13 (SEQ ID NO: 369) treatment. The two baseline ABRs were averaged and compared to the ABRs post P13 (SEQ ID NO: 369) treatment.

BALB/c mice [5] = assay: Middle ear inflammation: heat-inactivated S. pneumoniae plus peptide injected into the middle ear, histology after 3 days; assay type: in vivo, mouse; settings: single dose with heat-inactivated S. pneumoniae; paired t-tests
[6] = test system: toll-like receptor-dependent signaling; assay: Cytokine secretion / signaling in response to TLR activation in vitro; assay type: cell-based
Method: as §1

BALB/c mice [7] = assay: LPS-induced septic shock model, pro-inflammatory mediators; assay type: in vivo; settings: mouse model
Method: BALB/c mice are injected i.p. with PBS, LPS at about 100 μg/mouse/250 μl, or about 100 μg LPS plus various doses of peptides. Serum is collected at about 2 and about 6 hours after treatment and evaluated for the pro-inflammatory cytokines MIP-2 and TNF-α by ELISA, and for soluble ICAM-1.

[8] = test system: TNF-α secretion from RAW264.7 cells; assay: Inhibition of CpG-ODN-induced TNF-α secretion from RAW264.7 cells (ELISA); assay type: cell-based, murine; settings: peptide 3.1 μM (Table 3), 1 μg/ml CpG-ODN, 4 hours
BALB/c mice [9] = assay: Assay for crossing the tympanic membrane by FITC-labeled peptide; assay type: in vivo, mouse; settings: 10 μg/30 μl dropped on ear, 10 minutes; AOM ears; fluorescent microscopy
Method: Three BALB/c mice at 8-12 weeks of age were anesthetized with ketamine (100 mg/kg) and xylazine (20 mg/kg) prior to administration of bacteria. A ventral midline incision was made in the neck, and the bulla exposed after blunt dissection. The middle ear was inoculated through the bony wall with approximately 3.5 μL of a bacterial suspension (heat inactivated S. pneumoniae 10^10 CFU/ml) with a thin needle. Both the right and left ears received bacteria by bulla injection.
After 24 hours, animals received an otoscopic exam using an operating microscope. Mice were anesthetized as described above, and the tympanic membrane was inspected for the presence or absence of the following three criteria for acute otitis media (AOM): 1) middle ear effusion behind the tympanic membrane; 2) change in color of the tympanic membrane from clear to red or white (indicating inflammation and/or purulence in the middle ear); and 3) change in position of the tympanic membrane from neutral to bulging or retracted.
Four ears met the criteria for AOM. FITC labeled peptide P13-R^9 (SEQ ID NO: 378) (10 μg/30 μl) was dropped onto the middle ear. The peptide was allowed to absorb for 10 minutes. After 10 minutes, the external ear canal was flushed twice, and blotted to get rid of any remaining peptide. […]

Substance | Percent Inhibition of TNF-α secretion, LPS Stimulation ([2]; peptide 7.4 uM) [%] | Percent Inhibition of TNF-α secretion, LPS Stimulation ([2]; peptide 11.1 uM) [%] | Percent Inhibition of TNF-α secretion, LPS Stimulation ([2]; peptide 22.2 uM) [%] | Inhibition of TNF-α secretion (percent inhibition) ([1]; peptide 7 μM (Table 3)) [%] | Inhibition of TNF-α secretion (percent inhibition) ([1]; peptide 11 μM (Table 3)) [%] | Percent Inhibition of TNF-α secretion ([1]; peptide 11.1 μM) [%] | Percent Inhibition of TNF-α secretion ([1]; peptide 22.2 μM) [%] | Percent Inhibition of TNF-α secretion ([1]; peptide 37 μM) [%] | Inhibition of TNF-α secretion (percent inhibition) [8] [%] | further results
AIVKLTVYDCIRRRRRRRRR [T3-R^9] | 33 | 65 | 77 |  |  |  |  |  |  | activity compared with P13 (inhibition of TNF-α after stimulation of RAW264.7 cells with CpG) [1]: superior activity; Percent Inhibition of TNF-α secretion, CpG Stimulation ([1]; peptide 7.1 μM): 85%; Percent Inhibition of TNF-α secretion, CpG Stimulation ([1]; peptide 11.1 μM): 92%; Percent Inhibition of TNF-α secretion, CpG Stimulation ([1]; peptide 22 μM): 99%
D-Asp-D-Ile-D-Val-D-Lys-D-Leu-D-Thr-D-Val-D-Tyr-D-Asp-D-Cys-D-Ile ([dD][dI][dV][dK][dL][dT][dV][dY][dD][dC][dI]) [D-P13, stereoisomer of P13 containing all D-amino acid residues] |  |  |  |  |  |  |  |  |  | improvement of hearing thresholds across all frequencies (C3H/HeJ mice; week 2 post-treatment): approximately 20 db; hearing thresholds by ABR across all four frequencies (C3H/HeJ mice; weeks 1 and 2 post-treatment): demonstrated efficacy
DIVKLTVYACIRRRRRRRRR [T11-R^9] | 68 | 81 | 91 |  |  |  |  |  |  | activity compared with P13 (inhibition of TNF-α after stimulation of RAW264.7 cells with CpG) [1]: superior activity
DIVKLTVYDCI [Peptide P13, DIVKLTVYDCI] |  |  |  |  |  |  |  |  |  | differences between PBS-injected ear and P13-injected ear in fluid area, cell number, tympanic membrane thickness (BALB/c mice [3]): no differences; impact on hearing thresholds in normal mice (ototoxicity) (BALB/c mice [4]): did not negatively impact hearing thresholds
DIVKLTVYDCIRRRRRRRRR [P13-R^9] | 0 | 13 | 69 |  |  |  |  |  |  | Percent Inhibition of TNF-α secretion, CpG Stimulation ([1]; peptide 7.1 μM): 32%; Percent Inhibition of TNF-α secretion, CpG Stimulation ([1]; peptide 11.1 μM): 65%; Percent Inhibition of TNF-α secretion, CpG Stimulation ([1]; peptide 22 μM): 86%; bacterial-induced middle ear inflammation (amount of fluid, infiltrating cell number, thickness of the tympanic membrane) (BALB/c mice [5]): dramatically reduced; cytokine secretion from cell activation initiated independent of TLR stimulation [6]: no effect; cytokine secretion in response to TLR activation ([6]; TLR ligands individually or in combination): effectively inhibited; pro-inflammatory mediators in LPS-induced septic shock (BALB/c mice [7]): reduce pro-inflammatory mediators
EMFTILEEYFMYRGRRRRRRRRR (C-terminal nona-arginine (R9)) [81(S16)-R^9] |  |  |  | 53 | 70 | 84 | 86 | 90 | 26 | 
EMFTILEEYFMYRRRRRRRRR (C-terminal nona-arginine (R9)) [83(S17)-R^9] |  |  |  | 44 | 57 | 72 | 82 | 89 | 0 | 
FITC-labeled P13-R^9: FITC (Fluorescein isothiocyanate) labeled peptide P13-R^9 (SEQ ID NO: 378) (DIVKLTVYDCIRRRRRRRRR; also: FITC label, position not given here) |  |  |  |  |  |  |  |  |  | crossing of the tympanic membrane and association with cells in middle ear fluid (BALB/c mice [9]): crosses the tympanic membrane
FTILEEYFMYRGLLGLRIKYGRLFNEIRRRRRRRRR (C-terminal nona-arginine (R9)) [44(S3)-R^9] |  |  |  | 24 | 78 | 91 | 96 | 95 | 0 | 
MFTILEEYFMYRGLLGLRIKYGRLFNEIRRRRRRRRR (C-terminal nona-arginine (R9)) [43(S2)-R^9] |  |  |  | 51 | 70 | 91 | 94 | 100 | 0 | 

— patent US20140378395A1, “Peptides for the Treatment of Hearing” (13Therapeutics, Inc., priority 2011, published 2014)
